Biological target: T1, prostanoid EP3 receptors (Homo sapiens, UniProt P43115)
T1 sequence (P43115 1-390): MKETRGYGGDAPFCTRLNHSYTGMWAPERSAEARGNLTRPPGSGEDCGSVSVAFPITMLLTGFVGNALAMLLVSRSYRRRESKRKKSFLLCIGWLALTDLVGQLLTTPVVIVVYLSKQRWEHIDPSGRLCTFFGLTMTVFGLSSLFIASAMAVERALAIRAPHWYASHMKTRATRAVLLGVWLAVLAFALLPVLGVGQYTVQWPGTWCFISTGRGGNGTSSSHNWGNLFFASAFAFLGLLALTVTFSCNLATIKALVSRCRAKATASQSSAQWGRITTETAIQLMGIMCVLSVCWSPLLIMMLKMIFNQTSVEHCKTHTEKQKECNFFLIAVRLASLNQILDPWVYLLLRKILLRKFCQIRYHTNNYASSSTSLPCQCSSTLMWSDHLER
Test: binding on prostanoid EP3 receptors (method of Abramovitz et al.)
Details: read-out: Activity (EP3 receptor binding, IC50 class)
Experimental: The compounds of the invention were assayed for their binding on prostanoid EP3 receptors according to the method of Abramovitz et al. [Bioch. Biophys.

Q: Which IC50 does the source give for O=C(C=Cc1cccc2ccn(Cc3ccc4ccccc4c3)c12)NS(=O)(=O)c1cccs1 [Compound P001] here?
A: Its IC50 is < 1 µM.

Q: Which IC50 does the source give for O=C(/C=C/c1cccc2c1N(Cc1ccc3ccccc3c1)CC2)NS(=O)(=O)c1cccs1 [Compound P003] here?
A: Its IC50 is < 1 µM.

Q: How did the IC50 turn out when O=C(C=Cc1cccc2ccn(C(=O)c3ccc4ccccc4c3)c12)NS(=O)(=O)c1cccs1 [Compound P005] was run?
A: Its IC50 is < 1 µM.

Q: How did the IC50 turn out when Cc1ccc(C)c(Cn2ccc3cccc(C=CC(=O)NS(=O)(=O)c4cccs4)c32)c1 [Compound P008] was run?
A: The IC50 was < 1 µM.

Q: For O=C(Cn1c(=O)ccc2cccc(OCc3ccc4ccccc4c3)c21)NS(=O)(=O)c1cccs1 [Compound P012], which IC50 is on record?
A: Its IC50 is > 10 µM.

Q: Which IC50 does the source give for O=C(CN1CCCc2cccc(OCc3ccc4ccccc4c3)c21)NS(=O)(=O)c1cccs1 [Compound P015] here?
A: Its IC50 is 1 to 10 µM.

Q: O=C(C=Cc1cccc2ccn(Cc3ccc4ccccc4c3)c12)NS(=O)(=O)C(F)(F)F [Compound P016] was tested. Which IC50 did it give?
A: The IC50 was < 1 µM.

Q: Which IC50 does the source give for O=C(COc1cccc2c1N(Cc1ccc3ccccc3c1)C(=O)CO2)NS(=O)(=O)c1cccs1 [Compound P018] here?
A: Its IC50 is < 1 µM.

Q: For O=C(Nc1cccc2c1N(Cc1ccc3ccccc3c1)C(=O)CO2)C(=O)NS(=O)(=O)c1cccs1 [Compound P019, N-(4-Naphthalen-2-ylmethyl-3-oxo-3,4-dihydro-2H-benzo[1,4]oxazin-5-yl)-2-oxo-2-(thiophen-2-sulfonylamino)-acetamide], which IC50 is on record?
A: The IC50 was 1 to 10 µM.

Q: With Cc1ccc(CN2C(=O)COc3cccc(OCC(=O)NS(=O)(=O)c4cccs4)c32)cc1C [Compound P020] as the compound, how does the IC50 read?
A: Its IC50 is 1 to 10 µM.

Q: With Cc1ccc(C)c(CN2C(=O)COc3cccc(OCC(=O)NS(=O)(=O)c4cccs4)c32)c1 [Compound P021] as the compound, how does the IC50 read?
A: Its IC50 is 1 to 10 µM.

Q: With O=C(COc1cccc2c1N(Cc1ccccc1)C(=O)CO2)NS(=O)(=O)c1cccs1 [Compound P022] as the compound, how does the IC50 read?
A: The IC50 was 1 to 10 µM.

Q: Which IC50 does the source give for Cc1ccc(CN2C(=O)COc3cccc(OCC(=O)NS(=O)(=O)c4cccs4)c32)cc1 [Compound P023] here?
A: Its IC50 is 1 to 10 µM.

Q: For O=C(COc1cccc2c1N(Cc1ccc(F)cc1)C(=O)CO2)NS(=O)(=O)c1cccs1 [Compound P024], which IC50 is on record?
A: Its IC50 is > 10 µM.

Q: For O=C(COc1cccc2c1N(Cc1ccc(Cl)cc1)C(=O)CO2)NS(=O)(=O)c1cccs1 [Compound P025], which IC50 is on record?
A: The IC50 was > 10 µM.

Q: For O=C(COc1cccc2c1N(Cc1ccc(OC(F)F)cc1)C(=O)CO2)NS(=O)(=O)c1cccs1 [Compound P026], which IC50 is on record?
A: The IC50 was 1 to 10 µM.

Q: Which IC50 does the source give for O=C(COc1cccc2c1N(Cc1ccc(OC(F)(F)F)cc1)C(=O)CO2)NS(=O)(=O)c1cccs1 [Compound P027] here?
A: Its IC50 is 1 to 10 µM.

Q: With COc1cccc(CN2C(=O)COc3cccc(OCC(=O)NS(=O)(=O)c4cccs4)c32)c1 [Compound P030] as the compound, how does the IC50 read?
A: The IC50 was 1 to 10 µM.

Q: How did the IC50 turn out when O=C(COc1cccc2c1N(Cc1ccccc1C(F)(F)F)C(=O)CO2)NS(=O)(=O)c1cccs1 [Compound P031] was run?
A: The IC50 was 1 to 10 µM.

Q: With O=C(C=Cc1cnn2ccn(Cc3ccc4ccccc4c3)c12)NS(=O)(=O)c1cccs1 [Compound P034] as the compound, how does the IC50 read?
A: The IC50 was < 1 µM.

Q: Cc1nc2cccc(OCC(=O)NS(=O)(=O)c3cccs3)c2n1Cc1ccc2ccccc2c1 [Compound P037, Thiophen-2-sulfonic acid [2-(2-methyl-3-naphthalen-2-ylmethyl-3H-benzoimidazol-4-yloxy)-acetyl] amide] was tested. Which IC50 did it give?
A: Its IC50 is 1 to 10 µM.

Q: Which IC50 does the source give for Cc1ccc(S(=O)(=O)NC(=O)OCc2cccc3ccn(Cc4ccc5ccccc5c4)c23)cc1 [Compound P038] here?
A: Its IC50 is < 1 µM.

Q: How did the IC50 turn out when O=C(COc1cccc2c1N(Cc1ccc(Cl)c(Cl)c1)C(=O)CO2)NS(=O)(=O)c1cccs1 [Compound P039] was run?
A: Its IC50 is < 1 µM.

Q: With O=C(COc1cccc2c1N(Cc1ccc(Cl)cc1Cl)C(=O)CO2)NS(=O)(=O)c1cccs1 [Compound P040] as the compound, how does the IC50 read?
A: Its IC50 is < 1 µM.

Q: Which IC50 does the source give for COc1cc(CN2C(=O)COc3cccc(OCC(=O)NS(=O)(=O)c4cccs4)c32)cc(OC)c1 [Compound P041] here?
A: The IC50 was 1 to 10 µM.

Q: With O=C(COc1cccc2c1N(Cc1ccc3nonc3c1)C(=O)CO2)NS(=O)(=O)c1cccs1 [Compound P042] as the compound, how does the IC50 read?
A: Its IC50 is 1 to 10 µM.

Q: How did the IC50 turn out when CCOP(=O)(NC(=O)OCc1cccc2ccn(Cc3ccc4ccccc4c3)c12)OCC [Compound P044] was run?
A: The IC50 was 1 to 10 µM.

Q: How did the IC50 turn out when O=C(COc1cccc2oc(=O)n(Cc3ccc4ccccc4c3)c12)NS(=O)(=O)c1cccs1 [Compound P046] was run?
A: Its IC50 is < 1 µM.

Q: Which IC50 does the source give for COc1ccc(Br)cc1S(=O)(=O)NC(=O)COc1cccc2oc(=O)n(Cc3ccc4ccccc4c3)c12 [Compound P047] here?
A: Its IC50 is < 1 µM.

Q: Which IC50 does the source give for O=C(COc1cccc2oc(=O)n(Cc3ccc4ccccc4c3)c12)NS(=O)(=O)C(F)(F)F [Compound P048] here?
A: Its IC50 is 1 to 10 µM.

Q: For O=C(CNc1cccc2c1N(Cc1ccc3ccccc3c1)C(=O)CO2)NS(=O)(=O)c1cccs1 [Compound P049, Thiophen-2-sulfonic acid[2-(4-naphthalen-2-ylmethyl-3-oxo-3,4-dihydro-2H-benzo[1,4]oxazin-5-ylamino)-acetyl]-amide], which IC50 is on record?
A: Its IC50 is 1 to 10 µM.

Q: For O=C(COc1cccc2oc(=O)n(Cc3ccc4c(c3)OCO4)c12)NS(=O)(=O)c1cccs1 [Compound P050], which IC50 is on record?
A: The IC50 was 1 to 10 µM.

Q: How did the IC50 turn out when O=C(COc1cccc2oc(=O)n(Cc3ccc(Cl)c(Cl)c3)c12)NS(=O)(=O)c1cccs1 [Compound P051] was run?
A: Its IC50 is < 1 µM.

Q: Which IC50 does the source give for O=C(COc1cccc2oc(=O)n(Cc3ccc(Cl)cc3Cl)c12)NS(=O)(=O)c1cccs1 [Compound P052] here?
A: Its IC50 is < 1 µM.

Q: Cc1ccc(C)c(Cn2c(=O)oc3cccc(OCC(=O)NS(=O)(=O)c4cccs4)c32)c1 [Compound P053] was tested. Which IC50 did it give?
A: The IC50 was 1 to 10 µM.

Q: Which IC50 does the source give for COc1c(C)cnc(Cn2ccc3cccc(C=CC(=O)NS(=O)(=O)c4cccs4)c32)c1C [Compound P055] here?
A: The IC50 was 1 to 10 µM.

Q: Cc1cn(Cc2ccc3ccccc3c2)c2c(/C=C/C(=O)NS(=O)(=O)c3cccs3)cccc12 [Compound P057] was tested. Which IC50 did it give?
A: The IC50 was < 1 µM.

Q: How did the IC50 turn out when CC1C(=O)N(Cc2ccc(Cl)cc2Cl)c2c(C=CC(=O)NS(=O)(=O)c3cccs3)cccc21 (centres unmarked) [Compound P058] was run?
A: The IC50 was < 1 µM.

Q: With CC1C(=O)N(Cc2ccc3ccccc3c2)c2c(C=CC(=O)NS(=O)(=O)c3cccs3)cccc21 (centres unmarked) [Compound P059] as the compound, how does the IC50 read?
A: Its IC50 is < 1 µM.

Q: With O=C(C=Cc1cc(F)cc2ccn(Cc3ccc4ccccc4c3)c12)NS(=O)(=O)c1cccs1 [Compound P060] as the compound, how does the IC50 read?
A: Its IC50 is < 1 µM.

Q: For O=C(C=Cc1cc(F)cc2ccn(Cc3ccc(Cl)cc3Cl)c12)NS(=O)(=O)c1cccs1 [Compound P061], which IC50 is on record?
A: The IC50 was < 1 µM.

Q: Which IC50 does the source give for O=C(/C=C/c1cccc2c(CO)cn(Cc3ccc(Cl)cc3Cl)c12)NS(=O)(=O)c1cccs1 [Compound P062] here?
A: Its IC50 is < 1 µM.

Q: For CC1C(=O)N(Cc2ccc(Cl)cc2Cl)c2c(C=CC(=O)NS(=O)(=O)c3cccs3)cc(F)cc21 (centres unmarked) [Compound P065], which IC50 is on record?
A: The IC50 was < 1 µM.

Q: How did the IC50 turn out when CC1C(=O)N(Cc2ccc3ccccc3c2)c2c(C=CC(=O)NS(=O)(=O)c3cccs3)cc(F)cc21 (centres unmarked) [Compound P066] was run?
A: Its IC50 is < 1 µM.

Q: How did the IC50 turn out when O=Cc1cn(Cc2ccc(Cl)cc2Cl)c2c(C=CC(=O)NS(=O)(=O)c3cccs3)cccc12 [Compound P069] was run?
A: The IC50 was < 1 µM.

Q: For COCc1cn(Cc2ccc(Cl)cc2Cl)c2c(C=CC(=O)NS(=O)(=O)c3cccs3)cccc12 [Compound P070], which IC50 is on record?
A: Its IC50 is < 1 µM.

Q: With Cc1cn(Cc2ccc(Cl)cc2Cl)c2c(CCC(=O)NS(=O)(=O)c3cc(Cl)c(Cl)s3)cccc12 [Compound P072] as the compound, how does the IC50 read?
A: Its IC50 is < 1 µM.

Q: With Cc1cn(Cc2ccc3ccccc3c2)c2c(CCC(=O)NS(=O)(=O)c3cc(Cl)c(Cl)s3)cccc12 [Compound P073] as the compound, how does the IC50 read?
A: The IC50 was < 1 µM.

Q: O=C(CCc1cccc2ccn(Cc3ccc4ccccc4c3)c12)NS(=O)(=O)c1cccs1 [Compound P074] was tested. Which IC50 did it give?
A: Its IC50 is < 1 µM.

Q: Cc1cn(Cc2ccc3ccccc3c2)c2c(/C=C/C(=O)N(C)S(=O)(=O)c3cc(Cl)c(Cl)s3)cc(F)cc12 [Compound P076] was tested. Which IC50 did it give?
A: The IC50 was < 1 µM.
